Experimental findings from patent publication EP0908457B1, “3-(1,2-benzisothiazol- and isoxazol-5-Y1)-2,4(1H,3H)-pyrimidinedione or thione and 3-(1,2-benzisothiazol- and isoxazol-5-y1)-4(3H)-pyrimidinone or thione herbicidal agents” (BASF AKTIENGESELLSCHAFT, priority 1997, dated 1999) are described below.

Molecules are shown by their SMILES.

Data set [1] relates to Echinochloa oryzoides (Ard.) Fritsch. As to the kind of experiment: Preemergence weed control under flooded paddy conditions, ECHORC (Watergrass (Calif.)). On herbicidal effect rating, ECHORC: meaning of each grade not given here. To be noted: preemergence, flooded paddy, rated three to four weeks after treatment. The data set is classed as in vivo.
For data set [2], the system named is Cyperus iria. As to the kind of experiment: Preemergence weed control under flooded paddy conditions, CYPIR (Rice Flatsedge). On herbicidal effect rating, CYPIR: meaning of each grade not given here. The data set is classed as in vivo. To be noted: preemergence, flooded paddy, rated three to four weeks after treatment.
Data set [3] relates to Cyperus serotinus, Rottb. As to the kind of experiment: Preemergence weed control under flooded paddy conditions, CYPSE (Flatsedge). On herbicidal effect rating, CYPSE: meaning of each grade not given here. The conditions noted are these: preemergence, rated three to four weeks after treatment. The data set is classed as in vivo.
Data set [4] relates to Monochoria vaginalis, Presl. Nature of the data set: Preemergence weed control under flooded paddy conditions, MOOVA (Monochoria). On herbicidal effect rating, MOOVA: meaning of each grade not given here. The data set is classed as in vivo. To be noted: preemergence, flooded paddy, rated three to four weeks after treatment.
Data set [5] relates to Sagittaria pygmaea, L. As to the kind of experiment: Preemergence weed control under flooded paddy conditions, SAGPY (Arrowhead (Pygmaea)). On herbicidal effect rating, SAGPY: meaning of each grade not given here. The data set is classed as in vivo. To be noted: preemergence, flooded paddy, rated three to four weeks after treatment.
Data set [6] deals with Oryza sativa, (L.) Tebonnet. As to the kind of experiment: Rice tolerance to post-transplant applications under flooded paddy conditions (Example 187), ORYSAT (Rice, Tebonnet). The conditions noted are these: rated three to four weeks after treatment.

Consider `Cn1c(C(F)(F)F)cc(=O)n(-c2ccc3snc(CO)c3c2)c1=O` [Example 225, 3-[3-(Hydroxymethyl)-1,2-benzisothiazol-5-yl]-1-methyl-6-(trifluoromethyl)-2,4(1H,3H)-pyrimidinedione], for which the “ECHORC herbicidal effect rating” value turned out to be 0.0 in data set [1] (Rate 0.0313 kg/ha), 2.0 in data set [1] (Rate 0.0625 kg/ha), 4.0 in data set [1] (Rate 0.1250 kg/ha) and 7.0 in data set [1] (Rate 0.2500 kg/ha). Also, the “CYPIR herbicidal effect rating” value came to 0.0 in data set [2] (Rate 0.0313 kg/ha), 0.0 in data set [2] (Rate 0.0625 kg/ha), 2.0 in data set [2] (Rate 0.1250 kg/ha) and 7.0 in data set [2] (Rate 0.2500 kg/ha). The “CYPSE herbicidal effect rating” value in data set [3] (Rate 0.0313 kg/ha), in data set [3] (Rate 0.0625 kg/ha), in data set [3] (Rate 0.1250 kg/ha) and in data set [3] (Rate 0.2500 kg/ha) was 0.0 throughout. In addition, the “MOOVA herbicidal effect rating” value in data set [4] (Rate 0.0313 kg/ha) turned out to be 8.0; in data set [4] (Rate 0.0625 kg/ha), 8.0; in data set [4] (Rate 0.1250 kg/ha), 9.0; in data set [4] (Rate 0.2500 kg/ha), 9.0. For the same molecule, the “SAGPY herbicidal effect rating” value in data set [5] (Rate 0.0313 kg/ha), in data set [5] (Rate 0.0625 kg/ha), in data set [5] (Rate 0.1250 kg/ha) and in data set [5] (Rate 0.2500 kg/ha) was 0.0 in each case. Further, the “ORYSAT herbicidal effect rating” value was 3.0 in data set [6] (Rate 0.0313 kg/ha), 4.0 in data set [6] (Rate 0.0625 kg/ha), 6.0 in data set [6] (Rate 0.1250 kg/ha) and 7.0 in data set [6] (Rate 0.2500 kg/ha).
Regarding `COC(=O)c1nsc2cc(F)c(-n3c(=O)cc(C(F)(F)F)n(C)c3=O)cc12` [Example 513, 1,2-Benzisothiazole-3-carboxylic acid, 5-[3,6-dihydro-3-methyl-2,6-dioxo-4-(trifluoromethyl)-1(2H)-pyrimidinyl]-6-fluoro-, methyl ester], the ECHORC herbicidal rating in data set [1] (0.0320 kg/ha) was found to be 0.0; in data set [1] (0.0620 kg/ha) it was 5.0; in data set [1] (0.1250 kg/ha), 7.0; in data set [1] (0.2500 kg/ha), 8.0. Also, the CYPIR herbicidal rating in data set [2] (0.0320 kg/ha) is recorded as 4.0; in data set [2] (0.0620 kg/ha), 4.0; in data set [2] (0.1250 kg/ha), 6.0; in data set [2] (0.2500 kg/ha), 9.0. For the same molecule, the CYPSE herbicidal rating in data set [3] (0.0320 kg/ha), in data set [3] (0.0620 kg/ha), in data set [3] (0.1250 kg/ha) and in data set [3] (0.2500 kg/ha) was 9.0 each time. Moreover, the MOOVA herbicidal rating in data set [4] (0.0320 kg/ha), in data set [4] (0.0620 kg/ha), in data set [4] (0.1250 kg/ha) and in data set [4] (0.2500 kg/ha) was 9.0 throughout. Besides, the SAGPY herbicidal rating in data set [5] (0.0320 kg/ha), in data set [5] (0.0620 kg/ha), in data set [5] (0.1250 kg/ha) and in data set [5] (0.2500 kg/ha) was 9.0 throughout. Further, the “ORYSAT herbicidal rating (rice tolerance)” value came to 9.0 in data set [6] (0.0320 kg/ha), 7.0 in data set [6] (0.0620 kg/ha), 9.0 in data set [6] (0.1250 kg/ha) and 9.0 in data set [6] (0.2500 kg/ha).
Take `Cc1ccccc1CS(=O)(=O)NC(=O)c1nsc2ccc(-n3c(=O)cc(C(F)(F)F)n(C)c3=O)cc12` [Example 465, 1,2-Benzisothiazole-3-carboxamide, 5-[3,6-dihydro-3-methyl-2,6-dioxo-4-(trifluoromethyl)-1(2H)-pyrimidinyl]-N-[(o-methylbenzyl)sulfonyl]-]: the ECHORC herbicidal rating is 6.0 in data set [1] (0.0320 kg/ha), 6.0 in data set [1] (0.0620 kg/ha), 7.0 in data set [1] (0.1250 kg/ha) and 9.0 in data set [1] (0.2500 kg/ha). For the same molecule, the CYPIR herbicidal rating in data set [2] (0.0320 kg/ha) is given as 0.0; in data set [2] (0.0620 kg/ha) it was 0.0; in data set [2] (0.1250 kg/ha) it was 3.0; in data set [2] (0.2500 kg/ha), 8.0. Also, the CYPSE herbicidal rating turned out to be 0.0 in data set [3] (0.0320 kg/ha), 4.0 in data set [3] (0.0620 kg/ha), 7.0 in data set [3] (0.1250 kg/ha) and 9.0 in data set [3] (0.2500 kg/ha). Besides, the MOOVA herbicidal rating in data set [4] (0.0320 kg/ha) is reported as 2.0; in data set [4] (0.0620 kg/ha), 3.0; in data set [4] (0.1250 kg/ha), 6.0; in data set [4] (0.2500 kg/ha), 9.0. Also, the SAGPY herbicidal rating came to 2.0 in data set [5] (0.0320 kg/ha), 5.0 in data set [5] (0.0620 kg/ha), 5.0 in data set [5] (0.1250 kg/ha) and 6.0 in data set [5] (0.2500 kg/ha). Besides, the “ORYSAT herbicidal rating (rice tolerance)” value was determined as 2.0 in data set [6] (0.0320 kg/ha), 3.0 in data set [6] (0.0620 kg/ha), 4.0 in data set [6] (0.1250 kg/ha) and 5.0 in data set [6] (0.2500 kg/ha).
Consider `Cn1c(C(F)(F)F)cc(=O)n(-c2ccc3onc(-c4ccccc4)c3c2)c1=O` [Example 25, 1-Methyl-3-(3-phenyl-1,2-benzisoxazol-5-yl)-6-(trifluoromethyl)-2,4(1H,3H)-pyrimidinedione], for which the “herbicidal effect rating, ECHORC” value in data set [1] (0.0313 kg/ha) was found to be 7.0; in data set [1] (0.0625 kg/ha) it was 9.0; in data set [1] (0.1250 kg/ha) it was 9.0; in data set [1] (0.2500 kg/ha) it was 9.0. Also, the “herbicidal effect rating, CYPIR” value in data set [2] (0.0313 kg/ha), in data set [2] (0.0625 kg/ha), in data set [2] (0.1250 kg/ha) and in data set [2] (0.2500 kg/ha) was 9.0 throughout. The “herbicidal effect rating, CYPSE” value is on record as 0.0 in data set [3] (0.0313 kg/ha), 2.0 in data set [3] (0.0625 kg/ha), 7.0 in data set [3] (0.1250 kg/ha) and 8.0 in data set [3] (0.2500 kg/ha). Besides, the “herbicidal effect rating, MOOVA” value in data set [4] (0.0313 kg/ha), in data set [4] (0.0625 kg/ha), in data set [4] (0.1250 kg/ha) and in data set [4] (0.2500 kg/ha) was 9.0 throughout. For the same molecule, the “herbicidal effect rating, SAGPY” value in data set [5] (0.0313 kg/ha) was 0.0; in data set [5] (0.0625 kg/ha), 0.0; in data set [5] (0.1250 kg/ha) it was 1.0; in data set [5] (0.2500 kg/ha) it was 4.0. In addition, the “herbicidal effect rating, ORYSAT (rice tolerance)” value in data set [6] (0.0313 kg/ha) is reported as 4.0; in data set [6] (0.0625 kg/ha) it was 6.0; in data set [6] (0.1250 kg/ha), 7.0; in data set [6] (0.2500 kg/ha), 7.0.
